Results from ChEMBL document CHEMBL6078677, “Discovery and optimization of tetrahydroacridine derivatives as a novel class of antibiotics against multidrug-resistant Gram-positive pathogens by targeting type I signal peptidase and disrupting bacterial membrane” (Eur J Med Chem, 2025).
≈ marks a conversion by molar mass, not a printed value. Calls of active or inactive are those of the source. The rule behind the calls is not given here.

Legend:
[1] = Metabolic stability in human liver microsomes assessed as half-life at 100 uM preincubated for 5 mins followed by NADPH addition and measured upto 60 mins by LC-MS/MS analysis; assay type: ADME, Microsome; conditions: time < 65 min
[2] = Acute toxicity in ICR mouse model assessed as change in lung pathology at 25 to 100 mg/kg, IG administered for 7 days by H and E staining based analysis; assay type: organism-based; conditions: in vivo, po, 168 h, dose 25-100 mg/kg, time 7 day
[3] = system: Escherichia coli; assay: Antimicrobial activity against Escherichia coli ATCC 25922 assessed as inhibition of visible growth of bacteria incubated for 20 hrs by broth microdilution method; assay type: functional
[4] = Cytotoxicity against human HEp-2 cells assessed as cell viability at 1 time of MIC incubated for 48 hrs by CCK8 assay (reference value: 100 %); assay type: toxicity, cell-based; conditions: read-out: Activity
[5] = system: Staphylococcus aureus; assay: Bactericidal activity against Staphylococcus aureus ATCC 29213 assessed as bacterial killing at 8 times of MIC measured within 12 hrs by time-kill kinetics assay; assay type: functional, organism-based
[6] = target: Signal peptidase I (Escherichia coli K-12, UniProt P00803); assay: Binding affinity to recombinant 6His-tagged Escherichia coli LepB (77 to 324 residues) extracted from Escherichia coli BL21 (DE3) cells assessed as dissociation constant by MST analysis
Chain of Signal peptidase I (P00803 whole entry, the tested form may be a part): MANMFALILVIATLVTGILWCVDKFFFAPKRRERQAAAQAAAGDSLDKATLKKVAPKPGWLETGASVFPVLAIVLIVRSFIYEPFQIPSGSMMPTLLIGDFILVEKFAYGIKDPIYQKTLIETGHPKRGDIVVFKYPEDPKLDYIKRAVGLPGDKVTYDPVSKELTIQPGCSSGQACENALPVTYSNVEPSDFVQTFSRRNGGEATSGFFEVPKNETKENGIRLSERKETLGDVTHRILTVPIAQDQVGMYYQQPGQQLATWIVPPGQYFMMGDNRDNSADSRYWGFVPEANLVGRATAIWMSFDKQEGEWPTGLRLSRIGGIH

[7] = system: Staphylococcus aureus; assay: Antimicrobial activity against Staphylococcus aureus YZSA-24 harboring erythromycin resistance rRNA methylase C and methicillin resistance gene resistance locus assessed as inhibition of visible growth of bacteria incubated for 20 hrs by broth microdilution method; assay type: functional
[8] = Cytotoxicity against human HEp-2 cells assessed as cell viability at 4 times of MIC incubated for 48 hrs by CCK8 assay (reference value: 100 %); assay type: toxicity, cell-based; conditions: read-out: Activity
[9] = system: Cell membrane; assay: Disruption of cell membrane integrity in Staphylococcus aureus ATCC 29213 assessed as appearance of shriveled surface at 0.5 to 2 times of MIC by scanning electron microscopic analysis; assay type: subcellular
[10] = Cytotoxicity against human HEp-2 cells assessed as cell viability at 2 times of MIC incubated for 48 hrs by CCK8 assay (reference value: 100 %); assay type: toxicity, cell-based; conditions: read-out: Activity
[11] = Metabolic stability in mouse liver microsomes assessed as half-life at 100 uM preincubated for 5 mins followed by NADPH addition and measured upto 60 mins by LC-MS/MS analysis; assay type: ADME, Microsome; conditions: time < 65 min
[12] = system: Staphylococcus aureus; assay: Drug resistance, ratio of MIC for Staphylococcus aureus ATCC 29213 measured after 28 days to MIC for Staphylococcus aureus ATCC 29213 measured after 20 hrs; assay type: functional
[13] = system: Staphylococcus aureus; assay: microbe, parasite or virus in culture; assay type: functional; conditions: M92-1, time 20 hrs
Description: Antimicrobial activity against Staphylococcus aureus M92-1 harboring erythromycin resistance rRNA methylase B, tetracycline efflux protein L and oxazolidinone-phenicol transferable resistance gene assessed as inhibition of visible growth of bacteria incubated for 20 hrs by broth microdilution method

[14] = Cytotoxicity against human Caco-2 cells assessed as cell viability at 16 times of MIC incubated for 48 hrs by CCK8 assay (reference value: 99.54 %); assay type: toxicity, cell-based; conditions: read-out: Activity
[15] = system: Salmonella enteritidis; assay: Antimicrobial activity against Salmonella enteritis S1 assessed as inhibition of visible growth of bacteria incubated for 20 hrs by broth microdilution method; assay type: functional, Salmonella enterica subsp. enterica serovar Enteritidis; conditions: Salmonella enterica
[16] = Acute toxicity in ICR mouse model assessed as change in kidney pathology at 25 to 100 mg/kg, IG administered for 7 days by H and E staining based analysis; assay type: organism-based; conditions: in vivo, po, 168 h, dose 25-100 mg/kg, time 7 day
[17] = system: Staphylococcus aureus; assay: Antibiofilm activity in Staphylococcus aureus ATCC 29213 assessed as reduction in biofilm formation at 0.5 to 2 times of MIC measured after 72 hrs by SEM analysis; assay type: functional, organism-based
[18] = Hemolytic activity in Kunming mouse erythrocytes assessed as hemolysis at 4 times of MIC measured after 1 hrs by absorbance based assay relative to control; assay type: toxicity, cell-based, Erythrocyte; conditions: read-out: Activity
[19] = system: Enterococcus faecium; assay: Antimicrobial activity against Enterococcus faecium MC38 harboring erythromycin resistance rRNA methylase B and oxazolidinone-phenicol transferable resistance gene assessed as inhibition of visible growth of bacteria incubated for 20 hrs by broth microdilution method; assay type: functional
[20] = system: Staphylococcus aureus; assay: Bactericidal activity against Staphylococcus aureus ATCC 29213 assessed as decrease in bacterial number measured within 12 hrs by time-kill kinetics assay; assay type: functional, organism-based
[21] = Acute toxicity in ICR mouse model assessed as change in heart pathology at 25 to 100 mg/kg, IG administered for 7 days by H and E staining based analysis; assay type: organism-based; conditions: in vivo, po, 168 h, dose 25-100 mg/kg, time 7 day
[22] = Cytotoxicity against human HEp-2 cells assessed as cell viability at 16 times of MIC incubated for 48 hrs by CCK8 assay (reference value: 100 %); assay type: toxicity, cell-based; conditions: read-out: Activity
[23] = system: Staphylococcus aureus; assay: Disruption of preformed biofilm in Staphylococcus aureus ATCC 29213 at 1 microg/ml measured after 72 hrs by crystal violet staining based analysis relative to control; assay type: functional; conditions: dose 1 µg/ml
[24] = system: Staphylococcus aureus; assay: Antibacterial activity against methicillin-resistant Staphylococcus aureus YZSA-24 infected in cyclophosphamide-induced neutrophil depleted female ICR mouse model of skin infection assessed as log reduction in bacterial load at 1 %, TOP preadministered with cyclophosphamide for 5 days followed by bacterial administration and measured after 25 hrs of compound administration relative to vehicle group; assay type: functional
[25] = system: Cell membrane; assay: Disruption of cell membrane integrity in Staphylococcus aureus ATCC 29213 assessed as increase in red fluorescence intensity incubated for 4 hrs by SYTO-9/PI staining based LIVE/DEAD Baclight bacterial viability assay; assay type: subcellular
[26] = system: Staphylococcus aureus; assay: Antibacterial activity against methicillin-resistant Staphylococcus aureus YZSA-24 infected in cyclophosphamide-induced neutrophil depleted female ICR mouse model of skin infection assessed as log reduction in bacterial load at 2.5 %, TOP preadministered with cyclophosphamide for 5 days followed by bacterial administration and measured after 25 hrs of compound administration relative to […] group; assay type: functional
[27] = system: Staphylococcus aureus; assay: Bactericidal activity against Staphylococcus aureus ATCC 29213 assessed as bacterial eradication at 4 times of MIC measured after 24 hrs by time-kill kinetics assay relative to control; assay type: functional
[28] = system: Pseudomonas aeruginosa; assay: Antimicrobial activity against Pseudomonas aeruginosa PA14 assessed as inhibition of visible growth of bacteria incubated for 20 hrs by broth microdilution method; assay type: functional
[29] = system: Staphylococcus aureus; assay: Antimicrobial activity against Staphylococcus aureus YZSA-15 harboring erythromycin resistance rRNA methylase C and vancomycin resistance locus assessed as inhibition of visible growth of bacteria incubated for 20 hrs by broth microdilution method; assay type: functional
[30] = system: Enterococcus faecalis; assay: Antimicrobial activity against Enterococcus faecalis JH2-2 assessed as inhibition of visible growth of bacteria incubated for 20 hrs by broth microdilution method; assay type: functional
[31] = system: Staphylococcus aureus; assay: Antibiofilm activity against Staphylococcus aureus ATCC 29213 assessed as eradication of preformed biofilm by measuring residual biomass at 2 microg/ml measured after 72 hrs by crystal violet staining based analysis relative to control; assay type: functional; conditions: dose 2 µg/ml
[32] = system: Enterococcus faecalis; assay: Antimicrobial activity against Enterococcus faecalis J2 harboring erythromycin-resistance rRNA methylase B and oxazolidinone phenicol transferable resistance gene assessed as inhibition of visible growth of bacteria incubated for 20 hrs by broth microdilution method; assay type: functional
[33] = Metabolic stability in human liver microsomes assessed as hepatic extraction ratio at 100 uM preincubated for 5 mins followed by NADPH addition and measured upto 60 mins by LC-MS/MS analysis; assay type: ADME, Microsome; conditions: time < 65 min, read-out: ERH
[34] = system: Streptococcus suis; assay: Antimicrobial activity against Streptococcus suis P1/7 assessed as inhibition of visible growth of bacteria incubated for 20 hrs by broth microdilution method; assay type: functional

With `CC1C/C(=C\c2ccc(-c3ccc(Cl)c(C(F)(F)F)c3)s2)c2nc3ccccc3c(C(=O)O)c2C1` (racemic) the half-life at 100 µM [1] was over 3.08 h, the Activity [2] was “Non-toxic” and the MIC [3] was over 128 µg/mL. For the same molecule, the viability at 48 h, 1 time of MIC [4] was 96.9%, the Activity [5] was “Active” and the Kd [6] was 13.6 µM. The MIC [7] was 1 µg/mL (≈ 1.95 µM), the viability at 48 h, 4 times of MIC [8] was 91.4% and the Activity [9] was “Active”. For the same molecule, the viability at 48 h, 2 times of MIC [10] was 93.7%, the half-life at 100 µM [11] was over 3.08 h and the Ratio [12] was 2. The MIC [13] was 1 µg/mL (≈ 1.95 µM), the viability at 48 h, 16 times of MIC [14] was 61.7% and the MIC [15] was 128 µg/mL (≈ 249 µM). The Activity [16] was “Non-toxic”, the Activity [17] was “Active; Some Sections Appeared To Be Damaged And Broken” and the hemolysis at 1 h, 4 times of MIC [18] was 0.65%. For the same molecule, the MIC [19] was 2 µg/mL (≈ 3.89 µM), the Activity [20] was “Dose-dependent-effect” and the Activity [21] was “Non-toxic”. For the same molecule, the viability at 48 h, 16 times of MIC [22] was 44.5%, the Activity [23] was about 50% and the Activity [24] was 1.27 log10CFU/ml. For the same molecule, the Activity [25] was “Dose-dependent-effect”, the Activity [26] was 2.3 log10CFU/ml and the Activity [27] was 100%. The MIC [28] was over 128 µg/mL, the MIC [29] was 1 µg/mL (≈ 1.95 µM) and the MIC [30] was 1 µg/mL (≈ 1.95 µM). It also gave an Activity [31] of 31.4%, an MIC [32] of 2 µg/mL (≈ 3.89 µM) and a hepatic extraction ratio at 1 h, 100 µM [33] of under 0.27. It also gave an MIC [34] of 16 µg/mL (≈ 31.1 µM).
